Measurements: patent US9751833B2, “Antimicrobial biguanide metal complexes” (Smith & Nephew PLC, priority 2005, dated 2017)

Legend:
[1] = system: Staphylococcus aureus NCTC 10788; assay: Zone of inhibition, seeded Mueller-Hinton agar plug-hole assay; assay type: cell-based; details: 10 mg compound + 200 ul sterile water per 8 mm plug hole, 37° C., 24 hours, triplicates averaged
Protocol: (§1) Pseudomonas aeruginosa NCIMB 8626 and Staphylococcus aureus NCTC 10788 were harvested. Serial 1:10 dilutions were performed to give a final concentration of 10^8 bacteria/ml. Further dilutions were made for an inoculum count, down to […], with the number of bacteria/ml determined using the pour plate method.
(§2) Two large assay plates were then set up and 140 ml of Mueller-Hinton agar was added evenly to the large assay plates and allowed to dry (15 minutes). A further 140 ml of agar was seeded with the corresponding test organism and poured over the previous agar layer. Once the agar had set (15 minutes), the plate was dried at 37° C. for 30 minutes with the lid removed. 8 mm plugs were removed from the plate by biopsy punch.
(§3) In triplicate, 10 mg of the compounds prepared in Examples 1-3 were placed onto each plug hole followed by 200 ul sterile water. The plates were then sealed and incubated at 37° C. for 24 hours. The size of the microbial, including bacterial, zone cleared was measured using a Vernier calliper gauge, triplicates were averaged: […]

[2] = system: Pseudomonas aeruginosa NCIMB 8626; assay: as above; assay type: cell-based; details: 10 mg compound + 200 ul sterile water per 8 mm plug hole, 37° C., 24 hours, triplicates averaged
Protocol: as §1, §2, §3

Substance | Zone of Inhibition [1] [mm] | Zone of Inhibition [2] [mm]
Silver(III) Chlorhexidine (1,1′-hexamethylenebis[5-(p-chlorophenyl)biguanide] Complex [Example 1] | 6.4 | 5.4
Silver(III) o-tolybiguanide Complex [Example 3] | 8.4 | 7.4
